In publication PMC4310350 (Drug Design, Development and Therapy, 2015):

Assays:
[1] = target: T1, OATP1B3 (Homo sapiens, UniProt Q9NPD5); assay: Uptake in HEK293 cells overexpressing OATP1B3; assay type: in vitro ADME; conditions: OATP1B3-mediated uptake
T1 sequence (Q9NPD5 1-702): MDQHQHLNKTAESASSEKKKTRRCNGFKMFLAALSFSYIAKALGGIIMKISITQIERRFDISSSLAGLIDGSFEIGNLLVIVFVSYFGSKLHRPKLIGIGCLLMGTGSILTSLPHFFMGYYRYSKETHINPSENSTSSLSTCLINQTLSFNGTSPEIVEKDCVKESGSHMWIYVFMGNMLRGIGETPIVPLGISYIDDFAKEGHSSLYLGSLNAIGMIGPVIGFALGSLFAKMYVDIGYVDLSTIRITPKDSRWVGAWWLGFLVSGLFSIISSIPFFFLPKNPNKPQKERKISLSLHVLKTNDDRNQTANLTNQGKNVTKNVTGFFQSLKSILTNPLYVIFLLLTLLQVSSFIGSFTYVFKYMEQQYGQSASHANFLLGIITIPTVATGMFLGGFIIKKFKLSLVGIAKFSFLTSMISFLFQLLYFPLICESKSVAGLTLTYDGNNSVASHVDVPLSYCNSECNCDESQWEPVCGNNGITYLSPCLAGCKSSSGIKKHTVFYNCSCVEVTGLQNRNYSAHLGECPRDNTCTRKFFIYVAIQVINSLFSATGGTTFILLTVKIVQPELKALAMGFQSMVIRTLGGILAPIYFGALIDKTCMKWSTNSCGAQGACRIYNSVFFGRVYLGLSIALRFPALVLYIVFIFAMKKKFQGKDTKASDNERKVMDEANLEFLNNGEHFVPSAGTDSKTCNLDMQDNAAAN

[2] = target: T2, OCT2 (Homo sapiens, UniProt O15244); assay: Uptake in HEK293 cells overexpressing OCT2; assay type: in vitro ADME; conditions: OCT2, influx
T2 sequence (O15244 1-555): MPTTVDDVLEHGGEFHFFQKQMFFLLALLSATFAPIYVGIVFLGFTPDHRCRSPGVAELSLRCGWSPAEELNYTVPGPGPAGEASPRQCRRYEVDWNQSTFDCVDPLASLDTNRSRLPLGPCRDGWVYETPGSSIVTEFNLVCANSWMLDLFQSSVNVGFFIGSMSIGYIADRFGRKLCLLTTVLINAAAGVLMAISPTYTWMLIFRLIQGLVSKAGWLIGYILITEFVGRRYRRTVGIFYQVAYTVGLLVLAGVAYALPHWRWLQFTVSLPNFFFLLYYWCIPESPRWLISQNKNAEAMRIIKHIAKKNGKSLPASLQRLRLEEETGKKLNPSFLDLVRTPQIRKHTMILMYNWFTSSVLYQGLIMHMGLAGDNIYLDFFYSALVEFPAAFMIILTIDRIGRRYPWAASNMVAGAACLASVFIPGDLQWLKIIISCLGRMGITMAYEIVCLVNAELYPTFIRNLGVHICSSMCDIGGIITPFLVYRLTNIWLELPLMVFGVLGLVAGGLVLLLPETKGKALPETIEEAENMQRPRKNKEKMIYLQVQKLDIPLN

[3] = target: T3, OAT1 (Homo sapiens, UniProt Q4U2R8); assay: Uptake in HEK293 cells overexpressing OAT1; assay type: in vitro ADME; conditions: OAT1, influx
T3 sequence (Q4U2R8 1-563): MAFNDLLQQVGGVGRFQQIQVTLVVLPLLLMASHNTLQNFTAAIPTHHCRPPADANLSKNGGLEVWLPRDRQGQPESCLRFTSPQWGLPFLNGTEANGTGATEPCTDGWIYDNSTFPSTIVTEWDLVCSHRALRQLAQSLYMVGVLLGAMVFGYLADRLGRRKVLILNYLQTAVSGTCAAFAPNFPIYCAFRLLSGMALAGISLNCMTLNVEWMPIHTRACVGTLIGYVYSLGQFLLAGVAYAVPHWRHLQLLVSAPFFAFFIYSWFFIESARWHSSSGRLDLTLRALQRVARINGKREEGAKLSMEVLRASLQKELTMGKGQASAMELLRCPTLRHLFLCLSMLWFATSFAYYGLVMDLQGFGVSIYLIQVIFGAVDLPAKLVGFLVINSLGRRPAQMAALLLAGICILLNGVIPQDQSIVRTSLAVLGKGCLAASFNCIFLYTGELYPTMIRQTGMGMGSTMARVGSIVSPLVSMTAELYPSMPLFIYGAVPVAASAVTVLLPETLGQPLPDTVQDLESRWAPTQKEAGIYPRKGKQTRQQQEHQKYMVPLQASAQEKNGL

[4] = tested on: colitis induced by trinitrobenzene sulfonic acid; conditions: mice, cited from earlier work
[5] = human liver microsomes in the presence of NADPH; cited from earlier work
[6] = tested on: suppression of cytokines, antioxidative effect, and PPAR-α activation; conditions: in vitro cell system; cited from earlier work

Structure (SMILES): O=C(O[C@H]1[C@@H]2C=CO[C@@H](O[C@@H]3O[C@H](CO)[C@@H](O)[C@H](O)[C@H]3O)[C@@H]2[C@@]2(CO)O[C@@H]12)c1ccc(O)cc1 [catalposide]
- Hill coefficient n [1]: ~1
- Substrate [2]: not involved
- Substrate [3]: not involved
- Histologic toxicity ([4]; 1–2.5 mg/kg): without histologic toxicity
- Severity of colitis ([4]; dose 0.5 mg/kg): reduced the severity of colitis
- Stability [5]: remained stable
- Effective concentration [6]: 0.2 to 4 µM
